Columns and labels:
Type in all cases: cell-based, human
IL-2 mRNA = experiment: PHA-induced IL-2 mRNA expression in heparinized whole blood ex vivo; conditions: supplement 30 min, concentrations per footnote
Method: (§1) In this embodiment, phytohemagglutinin-induced gene expression of interleukin-2 (IL-2), interleukin-4 (IL-4), and tumor necrosis factor-α (TNF-α) were quantitated in the following manner. Fifty μL of heparinized whole blood was incubated with various dietary supplements for a period of 30 minutes. The following supplements were employed: vitamins A, C, and D, epigallocatechin gallate (from green tea), genistein (from soy), and curcumin (from the spice turmeric). Vitamin A is known to stimulate the immune system. […] Vitamin D appears to have protective effects against certain cancers. Epigallocatechin gallate is a powerful antioxidant, appears to reduce the multidrug resistance found in cancer cells, and preferentially induces apoptosis in neoplastic cells. Genistein has been found in some studies to have anticarcinogenic activity; possible mechanisms of action include upregulation of apoptosis, inhibition of angiogenesis, inhibition of DNA topoisomerase II and inhibition of protein tyrosine kinases. Curcumin has proapoptotic effects in neoplastic cells and interferes with the activity of the transcription factor NF-κB, which is often highly overexpressed in such cells.
(§2) After incubation with the dietary supplement, 100 μg/mL phytohemagglutinin (PHA) was added and incubation was continued for an additional 2 hours at 37° C. The concentration of each dietary supplement (see Table I, note) was slightly higher than reported blood levels. Then mRNA was purified, cDNA was synthesized, and the levels of IL-2, IL-4, and TNF-α were quantitated by TaqMan real time polymerase chain reaction (PCR) (see Holland, et al., “Detection of specific polymerase chain reaction product by utilizing the 5′ to 3′ exonuclease activity of Thermus aquaticus DNA polymerase,” Proc Natl Acad Sci USA 1991; 88: 7276-80), as described below.
(§3) The mRNA and cDNA were prepared from the whole blood that was exposed to the dietary components, as well as the whole blood which remained unexposed. In brief, home-made 96-well filterplates were placed over collection plates, and 150 μl 5 mM Tris, pH 7.4, was applied. Following centrifugation at 120×g for 1 min at 4° C., 50 μl of blood samples were applied to each well and immediately centrifuged at 120×g for 2 min at 4° C., followed by washing of each well with 300 μl PBS once with centrifugation at 2000×g for 5 min at 4° C. Then, 60 μl stock lysis buffer, containing for example 0.5% N-Lauroylsarcosine, 4×SSC, 10 mM Tris HCl, pH 7.4, 1 mM EDTA, 0.1% IGEPAL CA-630, and 1.791 M guanidine thiocyanate, supplemented with 1% 2-mercaptoethanol (Bio Rad, Hercules, Calif., USA), 0.5 mg/ml proteinase K (Pierce, Rockford, Ill., USA), 0.1 mg/ml salmon sperm DNA (5 Prime Eppendorf/Brinkmann, Westbury, N.Y., USA), 0.1 mg/ml E. coli tRNA (Sigma), a cocktail of 10 mM each of the specific reverse primers shown in Table 2, and standard RNA34 oligonucleotides, were applied to the filterplates, followed by incubation at 37° C. for 10 min. The filterplates were then placed over oligo(dT)-immobilized microplates (GenePlate, RNAture), and centrifuged at 2000×g for 5 min at 4° C. Following overnight storage at 4° C., the microplates were washed with 100 μl plain lysis buffer 3 times, followed by 150 μl of wash buffer (0.5 M NaCl, 10 mM Tris, pH 7.4, 1 mM EDTA) 3 times at 4° C. The cDNA was directly synthesized in each well by adding 30 μl of buffer containing 1×RT-buffer, 1.25 mM each of dNTP, 4 units rRNasin, and 80 units of MMLV reverse transcriptase (Promega) (without primers), and incubation at 37° C. for 2 hours. The specific primer-primed cDNA existed in solution, and oligo(dT)-primed cDNA stayed immobilized in the microplate. […]

TNF-α mRNA = experiment: PHA-induced TNF-α mRNA expression in heparinized whole blood ex vivo; conditions: supplement 30 min, then 100 μg/mL PHA 2 h, concentrations per footnote
Method: as §1, §2, §3

IL-4 mRNA = experiment: PHA-induced IL-4 mRNA expression in heparinized whole blood ex vivo; conditions: for ΔΔCt (mean ± standard deviation, n = 3), IL-4 mRNA: supplement 30 min, then 100 μg/mL PHA 2 h, concentrations per footnote
Method: as §1, §2, §3

With `CC1=C(/C=C/C(C)=C/C=C/C(C)=C/CO)C(C)(C)CCC1` [VA, vitamin A] the “ΔΔCt (mean ± standard deviation, n = 3), IL-2 mRNA” value (IL-2 mRNA; Subject 1, then 100 μg/mL PHA 2 h 37° C., negative = increased expression) was −0.98 ± 0.04, the “ΔΔCt (mean ± standard deviation, n = 3), IL-2 mRNA” value (IL-2 mRNA; Subject 2, then 100 μg/mL PHA 2 h) was −1.61 ± 0.32 and the “ΔΔCt (mean ± standard deviation, n = 3), IL-2 mRNA” value (IL-2 mRNA; Subject 3, then 100 μg/mL PHA 2 h) was 0.49 ± 0.33. The “ΔΔCt (mean ± standard deviation, n = 3), IL-2 mRNA” value (IL-2 mRNA; Subject 4, then 100 μg/mL PHA 2 h) was −0.29 ± 0.21, the “ΔΔCt (mean ± standard deviation, n = 3), IL-2 mRNA” value (IL-2 mRNA; Subject 5, then 100 μg/mL PHA 2 h) was −1.16 ± 0.02 and the “ΔΔCt (mean ± standard deviation, n = 3), IL-2 mRNA” value (IL-2 mRNA; Subject 6, then 100 μg/mL PHA 2 h) was −0.26 ± 0.20. For the same compound, the “ΔΔCt (mean ± standard deviation, n = 3), IL-2 mRNA” value (IL-2 mRNA; Subject 7, then 100 μg/mL PHA 2 h) was −0.66 ± 0.35, the “ΔΔCt (mean ± standard deviation, n = 3), TNFα mRNA” value (TNF-α mRNA; Subject 1) was −1.56 ± 0.11 and the “ΔΔCt (mean ± standard deviation, n = 3), TNFα mRNA” value (TNF-α mRNA; Subject 2) was −0.57 ± 0.94. The “ΔΔCt (mean ± standard deviation, n = 3), TNFα mRNA” value (TNF-α mRNA; Subject 3) was 0.51 ± 0.03, the “ΔΔCt (mean ± standard deviation, n = 3), TNFα mRNA” value (TNF-α mRNA; Subject 4) was −0.08 ± 0.29 and the “ΔΔCt (mean ± standard deviation, n = 3), TNFα mRNA” value (TNF-α mRNA; Subject 5) was −0.76 ± 0.34. The “ΔΔCt (mean ± standard deviation, n = 3), TNFα mRNA” value (TNF-α mRNA; Subject 6) was −0.50 ± 0.10, the “ΔΔCt (mean ± standard deviation, n = 3), TNFα mRNA” value (TNF-α mRNA; Subject 7) was −1.11 ± 0.24 and the “ΔΔCt (mean ± standard deviation, n = 3), IL-4 mRNA” value (IL-4 mRNA; Subject 1) was −2.14 ± 0.08. For the same compound, the “ΔΔCt (mean ± standard deviation, n = 3), IL-4 mRNA” value (IL-4 mRNA; Subject 2) was −1.56 ± 0.34, the “ΔΔCt (mean ± standard deviation, n = 3), IL-4 mRNA” value (IL-4 mRNA; Subject 3) was −0.15 ± 0.40 and the “ΔΔCt (mean ± standard deviation, n = 3), IL-4 mRNA” value (IL-4 mRNA; Subject 4) was −0.98 ± 0.41. The “ΔΔCt (mean ± standard deviation, n = 3), IL-4 mRNA” value (IL-4 mRNA; Subject 5) was −1.24 ± 0.13, the “ΔΔCt (mean ± standard deviation, n = 3), IL-4 mRNA” value (IL-4 mRNA; Subject 6) was −0.65 ± 0.09 and the “ΔΔCt (mean ± standard deviation, n = 3), IL-4 mRNA” value (IL-4 mRNA; Subject 7) was −1.15 ± 0.39. For the same compound, the “effect on PHA-induced IL-4 expression, in words” value (IL-4 mRNA; summary over 7 subjects of Table I) was “enhanced IL-4 expression, with 1-3 exceptions”.

Source: US20080206761A1, “Ex Vivo Gene Expression in Whole Blood as a Model of Assessment of Individual Variation to Dietary Supplements” (priority 2005, published 2008)
